Reference: patent publication US7846959B2, “Raf modulators and methods of use” (Exelixis, Inc., priority 2004, dated 2010)

Assays:
c-Raf = c-Raf (Homo sapiens, UniProt P04049); experiment: Luciferase-coupled chemiluminescence kinase assay (ATP consumption), c-Raf; assay type: biochemical; settings: read-out: cRaf-1 (inhibition indicated as IC50)
Method in brief: (§1)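 Pre-incub. kinase […] + cpd, 30 min RT (20 mM Tris pH 7.5, 10 mM MgCl2, 0.03% TX-100, 1 mM DTT). Start w/ ATP, 3 h ambient. Luciferase-luciferin mix added and luminescence read. Total ATP use 25-60%. IC50 derived.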

B-Raf = B-Raf (Homo sapiens, UniProt P15056); experiment: Luciferase-coupled chemiluminescence kinase assay (ATP consumption), B-Raf; assay type: biochemical; settings: read-out: bRaf (inhibition indicated as IC50)
Method in brief: as §1

B-Raf, sequence (P15056 whole entry): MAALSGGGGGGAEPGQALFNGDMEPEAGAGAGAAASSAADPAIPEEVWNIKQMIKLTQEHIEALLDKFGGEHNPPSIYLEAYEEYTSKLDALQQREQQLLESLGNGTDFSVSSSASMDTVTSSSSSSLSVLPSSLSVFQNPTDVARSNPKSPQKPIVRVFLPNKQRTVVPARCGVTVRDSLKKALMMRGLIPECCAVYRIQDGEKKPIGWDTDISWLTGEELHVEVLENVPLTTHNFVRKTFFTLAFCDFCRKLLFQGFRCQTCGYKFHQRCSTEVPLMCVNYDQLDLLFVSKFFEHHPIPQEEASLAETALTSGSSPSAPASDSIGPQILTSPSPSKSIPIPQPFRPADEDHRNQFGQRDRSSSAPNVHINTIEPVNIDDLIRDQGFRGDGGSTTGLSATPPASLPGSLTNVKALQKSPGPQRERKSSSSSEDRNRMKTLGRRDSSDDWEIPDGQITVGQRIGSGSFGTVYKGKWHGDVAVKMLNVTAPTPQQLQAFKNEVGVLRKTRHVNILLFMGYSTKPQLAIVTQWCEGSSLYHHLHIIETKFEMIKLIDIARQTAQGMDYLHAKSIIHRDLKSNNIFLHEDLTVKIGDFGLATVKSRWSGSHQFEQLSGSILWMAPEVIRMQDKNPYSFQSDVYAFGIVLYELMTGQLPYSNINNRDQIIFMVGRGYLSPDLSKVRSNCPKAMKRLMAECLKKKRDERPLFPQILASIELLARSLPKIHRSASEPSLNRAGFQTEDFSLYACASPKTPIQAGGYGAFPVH
c-Raf, sequence (P04049 whole entry): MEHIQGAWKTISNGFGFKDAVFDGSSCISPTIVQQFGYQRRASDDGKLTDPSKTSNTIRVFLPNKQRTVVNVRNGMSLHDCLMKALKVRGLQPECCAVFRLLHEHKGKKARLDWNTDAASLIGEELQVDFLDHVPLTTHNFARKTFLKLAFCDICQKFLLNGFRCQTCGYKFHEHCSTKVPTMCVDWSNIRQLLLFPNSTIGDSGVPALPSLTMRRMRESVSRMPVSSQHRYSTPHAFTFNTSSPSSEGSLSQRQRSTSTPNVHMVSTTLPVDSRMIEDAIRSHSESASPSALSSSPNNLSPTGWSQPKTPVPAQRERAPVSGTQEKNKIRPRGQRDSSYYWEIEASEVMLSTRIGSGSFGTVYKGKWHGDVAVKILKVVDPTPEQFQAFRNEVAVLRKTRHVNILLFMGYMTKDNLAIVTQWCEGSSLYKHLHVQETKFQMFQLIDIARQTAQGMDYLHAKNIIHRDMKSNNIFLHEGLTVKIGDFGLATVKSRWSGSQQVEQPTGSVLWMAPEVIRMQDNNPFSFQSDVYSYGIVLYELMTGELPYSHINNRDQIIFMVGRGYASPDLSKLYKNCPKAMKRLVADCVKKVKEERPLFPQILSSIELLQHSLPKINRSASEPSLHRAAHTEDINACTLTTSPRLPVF

| SMILES | IC50 (c-Raf) [nM] | IC50 (B-Raf) [nM] |
| --- | --- | --- |
| CC(C)(CN1CCCCC1)C(=O)Nc1nc2ccc(C3(O)c4ccccc4C(=O)N3Cc3ccccc3)cc2[nH]1 (centres unmarked) [Entry 286, N-{6-[1-hydroxy-3-oxo-2-(phenylmethyl)-2,3-dihydro-1H-isoindol-1-yl]-1H-benzimidazol-2-yl}-2,2-dimethyl-3-piperidin-1-ylpropanamide] | 1000 to 10000 | 1000 to 10000 |
| COC(=O)Nc1nc2ccc(C(=O)c3ccccc3NC(=O)c3ccccc3)cc2[nH]1 [Entry 289, methyl [6-({2-[(phenylcarbonyl)amino]phenyl}carbonyl)-1H-benzimidazol-2-yl]carbamate] | 1000 to 10000 | 1000 to 10000 |
| COC(=O)Nc1nc2cc(C3(O)c4ccccc4C(=O)N3c3cccc(N4CCOCC4)c3)ccc2[nH]1 (centres unmarked) [Entry 290, methyl {5-[1-hydroxy-2-(3-morpholin-4-ylphenyl)-3-oxo-2,3-dihydro-1H-isoindol-1-yl]-1H-benzimidazol-2-yl}carbamate] | 1000 to 10000 | 1000 to 10000 |
| O=C(Nc1nc2cc(C3(O)c4ccccc4C(=O)N3c3cccc(Cl)c3F)ccc2[nH]1)OCCN1CCCCC1 (centres unmarked) [Entry 293, 2-piperidin-1-ylethyl {5-[2-(3-chloro-2-fluorophenyl)-1-hydroxy-3-oxo-2,3-dihydro-1H-isoindol-1-yl]-1H-benzimidazol-2-yl}carbamate] | < 100 | < 100 |
| O=C(Nc1nc2ccc(C3(O)c4ccccc4C(=O)N3c3cccc(Cl)c3F)cc2[nH]1)OCCCN1CCCCC1 (centres unmarked) [Entry 294, 3-piperidin-1-ylpropyl {6-[2-(3-chloro-2-fluorophenyl)-1-hydroxy-3-oxo-2,3-dihydro-1H-isoindol-1-yl]-1H-benzimidazol-2-yl}carbamate] | 1000 to 10000 | 1000 to 10000 |
| O=C(Nc1nc2ccc(C3c4ccccc4C(=O)N3c3cccc(Br)c3)cc2[nH]1)OCCN1CCCCC1 (centres unmarked) [Entry 295, 2-piperidin-1-ylethyl {6-[2-(3-bromophenyl)-3-oxo-2,3-dihydro-1H-isoindol-1-yl]-1H-benzimidazol-2-yl}carbamate] | < 100 | 100 to 1000 |
| COC(=O)Nc1nc2ccc(C3(O)c4c(F)ccc(F)c4C(=O)N3c3cccc(Br)c3)cc2[nH]1 (centres unmarked) [Entry 296, methyl {6-[2-(3-bromophenyl)-4,7-difluoro-1-hydroxy-3-oxo-2,3-dihydro-1H-isoindol-1-yl]-1H-benzimidazol-2-yl}carbamate] | < 100 | < 100 |
| CN(CCOC(=O)Nc1nc2cc(C3(O)c4ccccc4C(=O)N3c3cccc(Cl)c3F)ccc2[nH]1)Cc1ccccc1 (centres unmarked) [Entry 297, 2-[methyl(phenylmethyl)amino]ethyl {5-[2-(3-chloro-2-fluorophenyl)-1-hydroxy-3-oxo-2,3-dihydro-1H-isoindol-1-yl]-1H-benzimidazol-2-yl}carbamate] | < 100 | < 100 |
| COC(=O)Nc1nc2cc(C3(O)c4ccccc4C(=O)N3c3cccc(N4CCCC4)c3)ccc2[nH]1 (centres unmarked) [Entry 298, methyl {5-[1-hydroxy-3-oxo-2-(3-pyrrolidin-1-ylphenyl)-2,3-dihydro-1H-isoindol-1-yl]-1H-benzimidazol-2-yl}carbamate] | 1000 to 10000 | 1000 to 10000 |
| COC(=O)Nc1nc2cc(C3(O)c4ccccc4C(=O)N3c3cc(Cl)cc(F)c3F)ccc2[nH]1 (centres unmarked) [Entry 299, methyl {5-[2-(5-chloro-2,3-difluorophenyl)-1-hydroxy-3-oxo-2,3-dihydro-1H-isoindol-1-yl]-1H-benzimidazol-2-yl}carbamate] | < 100 | < 100 |
| COC(=O)Nc1nc2cc(C3(O)c4ccccc4C(=O)N3CC3CCCN3)ccc2[nH]1 (centres unmarked) [Entry 300, methyl {5-[1-hydroxy-3-oxo-2-(pyrrolidin-2-ylmethyl)-2,3-dihydro-1H-isoindol-1-yl]-1H-benzimidazol-2-yl}carbamate] | 1000 to 10000 | 1000 to 10000 |
| COC(=O)Nc1nc2cc(C3(O)c4ccccc4C(=O)N3CC3CCNC3)ccc2[nH]1 (centres unmarked) [Entry 301, methyl {5-[1-hydroxy-3-oxo-2-(pyrrolidin-3-ylmethyl)-2,3-dihydro-1H-isoindol-1-yl]-1H-benzimidazol-2-yl}carbamate] | 1000 to 10000 | 1000 to 10000 |
| CN1CCCCC1COC(=O)Nc1nc2ccc(C3(O)c4ccccc4C(=O)N3c3cccc(Cl)c3F)cc2[nH]1 (centres unmarked) [Entry 302, (1-methylpiperidin-2-yl)methyl {6-[2-(3-chloro-2-fluorophenyl)-1-hydroxy-3-oxo-2,3-dihydro-1H-isoindol-1-yl]-1H-benzimidazol-2-yl}carbamate] | < 100 | < 100 |
| CN1CCC[C@H]1COC(=O)Nc1nc2ccc(C3(O)c4ccccc4C(=O)N3c3cccc(Cl)c3F)cc2[nH]1 (stereo partly drawn) [Entry 303, [(2S)-1-methylpyrrolidin-2-yl]methyl {6-[2-(3-chloro-2-fluorophenyl)-1-hydroxy-3-oxo-2,3-dihydro-1H-isoindol-1-yl]-1H-benzimidazol-2-yl}carbamate] | < 100 | < 100 |
| O=C(Nc1nc2ccc(C3(O)c4ccccc4C(=O)N3c3cccc(Cl)c3F)cc2[nH]1)OCC1CCCN2CCCCC12 (centres unmarked) [Entry 304, octahydro-2H-quinolizin-1-ylmethyl {6-[2-(3-chloro-2-fluorophenyl)-1-hydroxy-3-oxo-2,3-dihydro-1H-isoindol-1-yl]-1H-benzimidazol-2-yl}carbamate] | < 100 | < 100 |
| COC(=O)Nc1nc2cc(C3(O)c4ccccc4C(=O)N3c3cc(Br)ccc3C)ccc2[nH]1 (centres unmarked) [Entry 305, methyl {5-[2-(5-bromo-2-methylphenyl)-1-hydroxy-3-oxo-2,3-dihydro-1H-isoindol-1-yl]-1H-benzimidazol-2-yl}carbamate] | < 100 | < 100 |
| O=C1c2ccccc2C(O)(c2ccc3[nH]c(=O)[nH]c3c2)N1c1cccc(Cl)c1F (centres unmarked) [Entry 306, 5-[2-(3-chloro-2-fluorophenyl)-1-hydroxy-3-oxo-2,3-dihydro-1H-isoindol-1-yl]-1,3-dihydro-2H-benzimidazol-2-one] | 1000 to 10000 | 1000 to 10000 |
| COC(=O)Nc1nc2cc(C3(O)c4ccccc4C(=O)N3c3cc(F)cc(Br)c3F)ccc2[nH]1 (centres unmarked) [Entry 307, methyl {5-[2-(3-bromo-2,5-difluorophenyl)-1-hydroxy-3-oxo-2,3-dihydro-1H-isoindol-1-yl]-1H-benzimidazol-2-yl}carbamate] | < 100 | < 100 |

More lines, now with the values ahead:

| IC50 (c-Raf) [nM] | IC50 (B-Raf) [nM] | SMILES |
| --- | --- | --- |
| < 100 | < 100 | CN1CCN(CCCOC(=O)Nc2nc3ccc(C4(O)c5ccccc5C(=O)N4c4ccc(F)cc4)cc3[nH]2)CC1 (centres unmarked) [Entry 280, 3-(4-methylpiperazin-1-yl)propyl {6-[2-(4-fluorophenyl)-1-hydroxy-3-oxo-2,3-dihydro-1H-isoindol-1-yl]-1H-benzimidazol-2-yl}carbamate] |
| < 100 | < 100 | COC(=O)Nc1nc2cc(C3c4ccccc4C(=O)N3c3cccc(Br)c3)ccc2[nH]1 (centres unmarked) [Entry 281, methyl {5-[2-(3-bromophenyl)-3-oxo-2,3-dihydro-1H-isoindol-1-yl]-1H-benzimidazol-2-yl}carbamate] |
| < 100 | < 100 | C#Cc1cccc(N2C(=O)c3ccccc3C2(O)c2ccc3[nH]c(NC(=O)OC)nc3c2)c1F (centres unmarked) [Entry 282, methyl {5-[2-(3-ethynyl-2-fluorophenyl)-1-hydroxy-3-oxo-2,3-dihydro-1H-isoindol-1-yl]-1H-benzimidazol-2-yl}carbamate] |
| < 100 | 100 to 1000 | O=C(Nc1nc2cc(C3(O)c4ccccc4C(=O)N3c3ccc(F)cc3)ccc2[nH]1)OCCN1CCCCC1 (centres unmarked) [Entry 283, 2-piperidin-1-ylethyl {5-[2-(4-fluorophenyl)-1-hydroxy-3-oxo-2,3-dihydro-1H-isoindol-1-yl]-1H-benzimidazol-2-yl}carbamate] |
| < 100 | < 100 | COC(=O)Nc1nc2cc(C3(O)c4ccccc4C(=O)N3c3cccc(Cl)c3C)ccc2[nH]1 (centres unmarked) [Entry 284, methyl {5-[2-(3-chloro-2-methylphenyl)-1-hydroxy-3-oxo-2,3-dihydro-1H-isoindol-1-yl]-1H-benzimidazol-2-yl}carbamate] |
| < 100 | < 100 | COC(=O)Nc1nc2cc(C3(O)c4ccccc4C(=O)N3c3cc(Cl)ccc3C)ccc2[nH]1 (centres unmarked) [Entry 285, methyl {5-[2-(5-chloro-2-methylphenyl)-1-hydroxy-3-oxo-2,3-dihydro-1H-isoindol-1-yl]-1H-benzimidazol-2-yl}carbamate] |
| < 100 | < 100 | O=C(CCCN1CCCCC1)Nc1nc2cc(C3(O)c4ccccc4C(=O)N3c3ccc(F)cc3)ccc2[nH]1 (centres unmarked) [Entry 287, N-{5-[2-(4-fluorophenyl)-1-hydroxy-3-oxo-2,3-dihydro-1H-isoindol-1-yl]-1H-benzimidazol-2-yl}-4-piperidin-1-ylbutanamide] |
| < 100 | < 100 | O=C(CCCN1CCCCC1)Nc1nc2cc(C3(O)c4ccccc4C(=O)N3c3cccc(Cl)c3F)ccc2[nH]1 (centres unmarked) [Entry 288, N-{5-[2-(3-chloro-2-fluorophenyl)-1-hydroxy-3-oxo-2,3-dihydro-1H-isoindol-1-yl]-1H-benzimidazol-2-yl}-4-piperidin-1-ylbutanamide] |
| < 100 | < 100 | CN(C)CCOC(=O)Nc1nc2ccc(C3(O)c4ccccc4C(=O)N3c3cccc(Cl)c3F)cc2[nH]1 (centres unmarked) [Entry 291, 2-(dimethylamino)ethyl {6-[2-(3-chloro-2-fluorophenyl)-1-hydroxy-3-oxo-2,3-dihydro-1H-isoindol-1-yl]-1H-benzimidazol-2-yl}carbamate] |
| < 100 | < 100 | CCN(CC)CCOC(=O)Nc1nc2cc(C3(O)c4ccccc4C(=O)N3c3cccc(Cl)c3F)ccc2[nH]1 (centres unmarked) [Entry 292, 2-(diethylamino)ethyl {5-[2-(3-chloro-2-fluorophenyl)-1-hydroxy-3-oxo-2,3-dihydro-1H-isoindol-1-yl]-1H-benzimidazol-2-yl}carbamate] |
